Source: article PMC6272185 (Molecules, 2015)
Converted amounts (≈) assume the structure as drawn. Where two headings read alike, the source gives them in different places.

Key:
[1] = test system: NO production by LPS-stimulated RAW 264.7 macrophages; test: Inhibition of NO production by LPS-stimulated macrophages (Griess); type: cell-based, murine; conditions: Mus musculus, RAW264.7, 24 h, LPS (1 µg/mL)-stimulated RAW 264.7, 24 h; mean ± SD, n = 3; read-out: IC50 NO
[2] = test system: TNF-α production by LPS-stimulated RAW 264.7 macrophages; test: Inhibition of TNF-α production by LPS-stimulated macrophages (ELISA); type: cell-based, murine; conditions: for IC50: Mus musculus, RAW264.7, LPS (1 µg/mL)-stimulated RAW 264.7, 24 h, mean ± SD, n = 3, read-out: IC50 TNF-α
[3] = Macrophage cytotoxicity, LDH release assay; type: cell-based, murine; conditions: mouse, RAW 264.7 macrophages stimulated with LPS; LPS-stimulated RAW 264.7, LDH release; mean ± SD, n = 3
Method: Cytotoxic effects of chalcone samples on RAW 264.7 cell viability in cultures stimulated with LPS were determined using the LDH (lactate dehydrogenase) release assay as previously described [58]. Cytoplasmic enzyme LDH release into cell culture supernatants was detected using a commercial LDH kit (Doles, GO, Brazil). Cell death was expressed as percentage of LDH release, which was calculated using the following formula: percentage of LDH release = 100 × (test LDH release − spontaneous release)/(maximum release − spontaneous release). The maximum release was determined following dissolution of cell monolayers using 1% (vol/vol) Triton X-100. The spontaneous release was determined in supernatants from cultures incubated in the presence of LPS and DMSO, used as a solvent for chalcone samples.

M. bovis BCG = test: microbe, parasite or virus in culture; type: cell-based, Mycobacterium bovis BCG; conditions: for MIC50 / MIC90: Mycobacterium tuberculosis variant bovis BCG, BCG, 168 h; for MIC50: read-out: MIC50 M. bovis BCG; for MIC90: read-out: MIC90 M. bovis BCG
[4] = test system: IL-1β production by LPS-stimulated RAW 264.7 macrophages; test: Inhibition of IL-1β production by LPS-stimulated macrophages (ELISA); type: cell-based, murine; conditions: for inhibition of IL-1β: LPS-stimulated RAW 264.7; for IC50: Mus musculus, RAW264.7, 24 h, read-out: IC50 IL-1β
Method: (§1) Murine RAW 264.7 macrophage cell line (American Type Culture Collection, Manassas, VA, USA), was cultured in Dulbecco’s modified Eagle’s medium (DMEM-F12) supplemented with 10% Fetal Bovine Serum (FBS) and gentamicin (50 µg/mL) in 5% CO2 atmosphere at 37 °C. For experiments, the cells were seeded in 96-well plates (1 × 10^5 cells/well) and incubated for 24 h at 37 °C. For macrophage stimulation, the cell cultures were treated with LPS (1 µg/mL) and incubated for additional 24 h in the presence or absence of the chalcone samples (samples 1–41) that were used at concentrations of 100, 20, 4 and 0.8 µg/mL. In some experiments, a nitric oxide (NO) inhibitor, L-NMMA (20 μg/mL), was used as a positive control of NO inhibition, and a non-steroidal anti-inflammatory drug indomethacin, known to inhibit production of prostaglandins, was used as a positive control of PGE2 inhibition.
(§2) The frozen culture supernatants samples were thawed and immediately analyzed using commercially available enzyme-linked immunosorbent assay (ELISA) kits to measure TNF-α, IL-1β (BD Biosciences) and PGE2 (R&D Systems, Minneapolis, MN, USA), according to the manufacturer’s instructions. Standard curves for each mediator were generated using reference cytokine concentrations supplied by the manufacturer. Nitric oxide (NO) generation was assessed by the Griess method to measure nitrites, which are stable breakdown NO products.

[5] = test system: PGE2 production by LPS-stimulated RAW 264.7 macrophages; test: Inhibition of PGE2 production by LPS-stimulated macrophages (ELISA); type: cell-based, murine; conditions: Mus musculus, RAW264.7, 24 h, read-out: IC50 PGE2
Method: as §1, §2

[6] = test system: iNOS expression in RAW 264.7 macrophages; test: iNOS expression by western blot in LPS-stimulated macrophages; type: cell-based, murine; conditions: 20 µg/mL, LPS 1 µg/mL, 24 h
Method: (§3) RAW 264.7 macrophages were plated in Petri dishes (2 × 10^7 cells·mL^−1) and incubated for 24 h at 37 °C in 5% CO2 atmosphere. […] The resulted cellular monolayers were washed with PBS 1×, scraped and resuspended in PBS 1×, transferred and centrifuged to obtain cell pellets. The cells were lysed in buffer (10% SDS, 20% glycerol, 5% 2-mercaptoethanol, 2% bromophenol blue and 1 M Tris HCl, pH 6.8, containing protease inhibitors). Protein concentrations were estimated by Bradford method. For western blot analysis, cellular extract samples (60 µg) were submitted to 10% SDS–polyacrylamide gel electrophoresis under […] conditions and transferred to nitrocellulose membranes (Amersham Pharmacia Biotech, Uppsala, Sweden). After blocking with PBS-T (0.5% Tween-20) containing 2.5% (w/v) bovine serum albumin, the membranes were incubated with antibodies against iNOS (1:1000) and COX-2 (1:500) for 1 h at room temperature. After incubation period, the membranes were washed followed by treatment with horseradish peroxidase-conjugated secondary antibody. The resulting membranes were developed using diaminobenzidine/H2O2 as a substrate for peroxidase. In all electrophoresis experiments, a protein standard ladder (Full Range Rainbow-GE Healthcare, Piscataway, NJ, USA) was used to estimate proteins molecular size. Protein bands densitometric analysis was performed using ImageJ software for Windows (NIH, Bethesda, MD, USA). The value for stimulated condition (LPS- treated cells) was set as 1 and other conditions were recalculated correspondingly to allow ratio comparisons.

[7] = test system: COX-2 expression in RAW 264.7 macrophages; test: COX-2 expression by western blot in LPS-stimulated macrophages; type: cell-based, murine; conditions: 20 µg/mL, LPS 1 µg/mL, 24 h
Method: as §3

M. tuberculosis H37Rv = test: microbe, parasite or virus in culture; type: cell-based, Mycobacterium tuberculosis; conditions: for MIC90 / MIC50: Mycobacterium tuberculosis
M. tuberculosis M299 = test: microbe, parasite or virus in culture; type: cell-based, Mycobacterium tuberculosis; conditions: Mycobacterium tuberculosis, M299, 120 h
[8] = test system: M. tuberculosis strain H37Rv in RAW 264.7 macrophages; test: Intracellular growth of M. tuberculosis H37Rv in infected macrophages (CFU); type: cell-based, Mycobacterium tuberculosis; conditions: infected RAW 264.7, MOI 1:1, 4 days, Figure 3C; for MIC50: Mycobacterium tuberculosis, H37RV, 96 h
Method: (§4) RAW 264.7 macrophages were plated (1 × 10^5 cells/well) in antibiotic-free DMEM-F12 medium supplemented with 10% fetal bovine serum and incubated for 24 h. Prior to infection, mycobacterial suspensions were sonicated for 1 minute to disperse clumps and optical densities were adjusted to 0.1. The macrophage cultures were infected at a MOI of 1:1 (macrophage: bacterium). Phagocytosis was allowed to progress for 3 h. After 3 h, extracellular mycobacteria were removed by washing with PBS 1X and the infected cell monolayers were treated for 4 days with chalcone samples or rifampicin. Macrophage viability was monitored by LDH assay and was over 80% in all experiments. On day 4 after infection, cells were lysed cells with 1% saponin to release intracellular bacteria. Lysate aliquots were diluted 10-fold in PBS, plated in triplicates on 7H10 agar plates and incubated at 37 °C. After 21 days, total CFU were determined.

[9] = test system: RAW 264.7 macrophages infected with M. tuberculosis H37Rv; test: Toxicity for infected macrophages, LDH assay; type: cell-based, murine; conditions: Mus musculus, RAW264.7, 96 h; infected RAW 264.7, 4 days treatment; Figure 3D
Method: Cytotoxic effects of chalcone samples on RAW 264.7 cell viability in cultures stimulated with LPS were determined using the LDH (lactate dehydrogenase) release assay as previously described. Cytoplasmic enzyme LDH release into cell culture supernatants was detected using a commercial LDH kit (Doles, GO, Brazil). Cell death was expressed as percentage of LDH release, which was calculated using the following formula: percentage of LDH release = 100 × (test LDH release − spontaneous release)/(maximum release − spontaneous release). The maximum release was determined following dissolution of cell monolayers using 1% (vol/vol) Triton X-100. The spontaneous release was determined in supernatants from cultures incubated in the presence of LPS and DMSO, used as a solvent for chalcone samples.
as §4

[10] = H37RV, 120 h, read-out: MIC50 M. tuberculosis H37Rv
[11] = Table 5, same values as M. tuberculosis H37Rv in Table 3, read-out: MIC50

O=C(/C=C/c1ccc(Cl)cc1)c1ccccc1 [Chalcone 3]
IC50 [1]: 31.9 ± 4.6 µM | IC50 [2]: 60.5 ± 4.7 µM | IC50 [3]: 400 ± 4.9 µM | MIC50 (M. bovis BCG): 20.7 ± 6.4 µM (≈ 5.02 µg/mL) | MIC90 (M. bovis BCG): 170 ± 5.4 µM (≈ 41.2 µg/mL) | inhibition of IL-1β [4]: potent inhibitors | IC50 [4]: 46.6 ± 4.6 µM | IC50 [5]: 19.9 ± 2.6 µM | inhibition of iNOS expression [6]: almost completely inhibit | abrogation of COX-2 expression [7]: most potent in abrogation | MIC90 (M. tuberculosis H37Rv; H37RV, 120 h): 372.7 ± 3.6 µM (≈ 90.5 µg/mL) | MIC50 (M. tuberculosis H37Rv; [10]): 13 ± 3.3 µM (≈ 3.16 µg/mL) | MIC50 (M. tuberculosis H37Rv; [11]): 13 ± 3.3 µM (≈ 3.16 µg/mL) | MIC50 (M. tuberculosis M299): 18.4 ± 3.9 µM (≈ 4.46 µg/mL) | MIC90 (M. tuberculosis M299): 373.9 ± 1.4 µM (≈ 90.7 µg/mL) | MIC50 [8]: 12.3 ± 1 µM (≈ 2.99 µg/mL) | IC50 [9]: 307 ± 5.1 µM

O=C(/C=C/c1ccc2c(c1)OCO2)c1ccccc1 [Chalcone 5]
inhibition of TNF-α ([2]; LPS-stimulated RAW 264.7): strongly inhibit | IC50 [2]: 48.1 ± 7.6 µM | IC50 [3]: > 396 µM | MIC50 (M. bovis BCG): 14.5 ± 6.1 µM (≈ 3.66 µg/mL) | MIC90 (M. bovis BCG): 75.3 ± 8.4 µM (≈ 19 µg/mL) | MIC90 M. bovis BCG (M. bovis BCG; culture, 7 days, MTT): 75.3 ± 8.4 µM (≈ 19 µg/mL) | inhibition of IL-1β [4]: potent inhibitors | IC50 [4]: 57.9 ± 4.9 µM | IC50 [5]: 23.1 ± 2.4 µM | inhibition of iNOS expression [6]: almost completely inhibit | abrogation of COX-2 expression [7]: most potent in abrogation | MIC90 M. tuberculosis H37Rv (M. tuberculosis H37Rv): 303.2 ± 5.4 µM (≈ 76.5 µg/mL) | MIC90 (M. tuberculosis H37Rv; H37RV, 120 h): 303 ± 5.4 µM (≈ 76.5 µg/mL) | MIC50 (M. tuberculosis H37Rv; [10]): 12.7 ± 1.9 µM (≈ 3.2 µg/mL) | MIC50 (M. tuberculosis H37Rv; [11]): 12.7 ± 1.9 µM (≈ 3.2 µg/mL) | MIC50 (M. tuberculosis M299): 11.7 ± 3.4 µM (≈ 2.95 µg/mL) | MIC90 (M. tuberculosis M299): 289.6 ± 0.7 µM (≈ 73.1 µg/mL) | MIC50 [8]: 3.8 ± 0.1 µM (≈ 0.959 µg/mL) | MIC50 intracellular M. tuberculosis H37Rv [8]: 3.8 ± 0.1 µM (≈ 0.959 µg/mL) | IC50 [9]: > 396 µM
